{"source": "patent US10626144B2", "about": "“Peptide derivatives and uses thereof” (Nosopharm, priority 2014, dated 2020)", "assay_in_all_cases": "MIC, broth microdilution (CLSI), reference strain", "details_in_all_cases": "CAMHB", "key": {"[1]": {"test_system": "Acinetobacter baumannii ATCC 19606"}, "[2]": {"test_system": "Pseudomonas aeruginosa ATCC 27853"}, "[3]": {"test_system": "Escherichia coli ATCC 25922"}, "[4]": {"test_system": "Staphylococcus aureus ATCC 13709"}}, "note": "Square brackets hold non-standard residues; d marks the D form. Peptide text beside a SMILES is read from it. * marks the point of attachment. Phe(3,4-(OMe)2) = COc1ccc(C[C@H](N)C(=O)O)cc1OC; Phe(3-CONH2) = NC(=O)c1cccc(C[C@H](N)C(=O)O)c1; Phe(4-CN) = N#Cc1ccc(C[C@H](N)C(=O)O)cc1; Phe(3-F) = N[C@@H](Cc1cccc(F)c1)C(=O)O; Phe(3-Me) = Cc1cccc(C[C@H](N)C(=O)O)c1; Dab(3S-OH) = NC[C@H](O)[C@H](N)C(=O)O; Phe(2-F) = N[C@@H](Cc1ccccc1F)C(=O)O; ΔZArg = N=C(N)NCC/C=C(\\N)C(=O)O; aThr = C[C@H](O)[C@H](N)C(=O)O; dOrn = NCCC[C@@H](N)C(=O)O; Dab = NCC[C@H](N)C(=O)O; NH(CH2)4NH2 = NCCCCN*"}
{"smiles": "C[C@H](O)[C@H](NC(=O)[C@H](CCN)NC(=O)[C@@H](N)CCCCN)C(=O)NCC(=O)N[C@H](CCCN)C(=O)N1CCC[C@H]1C(=O)N[C@@H](Cc1cnc[nH]1)C(=O)N[C@@H](CCCCN)C(=O)N/C(=C\\CCNC(=N)N)C(=O)N[C@@H](CCCCN)C(=O)NCCCCN", "note": "[15.1] (H-K[Dab][aThr]G[dOrn]PHK[ΔZArg]K-{NH(CH2)4NH2})", "values": [{"measurement": "Ab: MIC Acinetobacter baumannii ATCC 19606", "setting": "[1]", "value": "− (>32 μg/mL)"}, {"measurement": "Pa: MIC Pseudomonas aeruginosa ATCC 27853", "setting": "[2]", "value": "− (>32 μg/mL)"}, {"measurement": "Ec: MIC Escherichia coli ATCC 25922", "setting": "[3]", "value": "− (>32 μg/mL)"}, {"measurement": "Sa: MIC Staphylococcus aureus ATCC 13709", "setting": "[4]", "value": "+ (≤32 μg/mL)"}]}
{"smiles": "C[C@@H](O)[C@H](NC(=O)[C@H](CCN)NC(=O)[C@@H](N)CCCCN)C(=O)NCC(=O)N[C@H](CCCN)C(=O)N1CCC[C@H]1C(=O)N[C@@H](Cc1cnc[nH]1)C(=O)N[C@@H](CCCCN)C(=O)N/C(=C\\CCNC(=N)N)C(=O)N[C@@H](CCCCN)C(=O)NCCCCN", "note": "[15.3] (H-K[Dab]TG[dOrn]PHK[ΔZArg]K-{NH(CH2)4NH2})", "values": [{"measurement": "Ab: MIC Acinetobacter baumannii ATCC 19606", "setting": "[1]", "value": "− (>32 μg/mL)"}, {"measurement": "Pa: MIC Pseudomonas aeruginosa ATCC 27853", "setting": "[2]", "value": "− (>32 μg/mL)"}, {"measurement": "Ec: MIC Escherichia coli ATCC 25922", "setting": "[3]", "value": "− (>32 μg/mL)"}, {"measurement": "Sa: MIC Staphylococcus aureus ATCC 13709", "setting": "[4]", "value": "++ (≤8 μg/mL)"}]}
{"smiles": "N=C(N)NCC/C=C(\\NC(=O)[C@H](CCCCN)NC(=O)[C@H](Cc1cnc[nH]1)NC(=O)[C@@H]1CCCN1C(=O)[C@@H](CCCN)NC(=O)CNC(=O)[C@H](CO)NC(=O)[C@H](CCN)NC(=O)[C@@H](N)CCCCN)C(=O)N[C@@H](CCCCN)C(=O)NCCCCN", "note": "[16.1] (H-K[Dab]SG[dOrn]PHK[ΔZArg]K-{NH(CH2)4NH2})", "values": [{"measurement": "Ab: MIC Acinetobacter baumannii ATCC 19606", "setting": "[1]", "value": "− (>32 μg/mL)"}, {"measurement": "Pa: MIC Pseudomonas aeruginosa ATCC 27853", "setting": "[2]", "value": "− (>32 μg/mL)"}, {"measurement": "Ec: MIC Escherichia coli ATCC 25922", "setting": "[3]", "value": "− (>32 μg/mL)"}, {"measurement": "Sa: MIC Staphylococcus aureus ATCC 13709", "setting": "[4]", "value": "++ (≤8 μg/mL)"}]}
{"smiles": "N=C(N)NCC/C=C(\\NC(=O)[C@H](CCCCN)NC(=O)[C@H](Cc1cnc[nH]1)NC(=O)[C@@H]1CCCN1C(=O)[C@@H](CCCN)NC(=O)CNC(=O)[C@H](CCN)NC(=O)[C@@H](NC(=O)[C@@H](N)CCCCN)[C@@H](O)CN)C(=O)O", "note": "[21.2] (H-K[Dab(3S-OH)][Dab]G[dOrn]PHK[ΔZArg]-OH)", "values": [{"measurement": "Ab: MIC Acinetobacter baumannii ATCC 19606", "setting": "[1]", "value": "− (>32 μg/mL)"}, {"measurement": "Pa: MIC Pseudomonas aeruginosa ATCC 27853", "setting": "[2]", "value": "− (>32 μg/mL)"}, {"measurement": "Ec: MIC Escherichia coli ATCC 25922", "setting": "[3]", "value": "++ (≤8 μg/mL)"}, {"measurement": "Sa: MIC Staphylococcus aureus ATCC 13709", "setting": "[4]", "value": "++ (≤8 μg/mL)"}]}
{"smiles": "CC(=O)NCC[C@H](NC(=O)[C@@H](NC(=O)[C@@H](N)CCCCN)[C@@H](O)CN)C(=O)NCC(=O)N[C@H](CCCN)C(=O)N1CCC[C@H]1C(=O)N[C@@H](Cc1cnc[nH]1)C(=O)N[C@@H](CCCCN)C(=O)N/C(=C\\CCNC(=N)N)C(N)=O", "note": "[21.3] (H-K[Dab(3S-OH)][Dab](Ac)G[dOrn]PHK[ΔZArg]-NH2)", "values": [{"measurement": "Ab: MIC Acinetobacter baumannii ATCC 19606", "setting": "[1]", "value": "− (>32 μg/mL)"}, {"measurement": "Pa: MIC Pseudomonas aeruginosa ATCC 27853", "setting": "[2]", "value": "− (>32 μg/mL)"}, {"measurement": "Ec: MIC Escherichia coli ATCC 25922", "setting": "[3]", "value": "− (>32 μg/mL)"}, {"measurement": "Sa: MIC Staphylococcus aureus ATCC 13709", "setting": "[4]", "value": "++ (≤8 μg/mL)"}]}
{"smiles": "N=C(N)NCC/C=C(\\NC(=O)[C@H](CCCCN)NC(=O)[C@H](Cc1ccccc1F)NC(=O)[C@@H]1CCCN1C(=O)[C@@H](CCCN)NC(=O)CNC(=O)[C@H](CCN)NC(=O)[C@@H](NC(=O)[C@@H](N)CCCCN)[C@@H](O)CN)C(=O)O", "note": "[21.4] (H-K[Dab(3S-OH)][Dab]G[dOrn]P[Phe(2-F)]K[ΔZArg]-OH)", "values": [{"measurement": "Ab: MIC Acinetobacter baumannii ATCC 19606", "setting": "[1]", "value": "− (>32 μg/mL)"}, {"measurement": "Pa: MIC Pseudomonas aeruginosa ATCC 27853", "setting": "[2]", "value": "− (>32 μg/mL)"}, {"measurement": "Ec: MIC Escherichia coli ATCC 25922", "setting": "[3]", "value": "++ (≤8 μg/mL)"}, {"measurement": "Sa: MIC Staphylococcus aureus ATCC 13709", "setting": "[4]", "value": "++ (≤8 μg/mL)"}]}
{"smiles": "COc1ccc(C[C@H](NC(=O)[C@@H]2CCCN2C(=O)[C@@H](CCCN)NC(=O)CNC(=O)[C@H](CCN)NC(=O)[C@@H](NC(=O)[C@@H](N)CCCCN)[C@@H](O)CN)C(=O)N[C@@H](CCCCN)C(=O)N/C(=C\\CCNC(=N)N)C(=O)O)cc1OC", "note": "[21.5] (H-K[Dab(3S-OH)][Dab]G[dOrn]P[Phe(3,4-(OMe)2)]K[ΔZArg]-OH)", "values": [{"measurement": "Ab: MIC Acinetobacter baumannii ATCC 19606", "setting": "[1]", "value": "− (>32 μg/mL)"}, {"measurement": "Pa: MIC Pseudomonas aeruginosa ATCC 27853", "setting": "[2]", "value": "− (>32 μg/mL)"}, {"measurement": "Ec: MIC Escherichia coli ATCC 25922", "setting": "[3]", "value": "++ (≤8 μg/mL)"}, {"measurement": "Sa: MIC Staphylococcus aureus ATCC 13709", "setting": "[4]", "value": "++ (≤8 μg/mL)"}]}
{"smiles": "N=C(N)NCC/C=C(\\NC(=O)[C@H](CCCCN)NC(=O)[C@H](Cc1cccc(C(N)=O)c1)NC(=O)[C@@H]1CCCN1C(=O)[C@@H](CCCN)NC(=O)CNC(=O)[C@H](CCN)NC(=O)[C@@H](NC(=O)[C@@H](N)CCCCN)[C@@H](O)CN)C(=O)O", "note": "[21.6] (H-K[Dab(3S-OH)][Dab]G[dOrn]P[Phe(3-CONH2)]K[ΔZArg]-OH)", "values": [{"measurement": "Ab: MIC Acinetobacter baumannii ATCC 19606", "setting": "[1]", "value": "− (>32 μg/mL)"}, {"measurement": "Pa: MIC Pseudomonas aeruginosa ATCC 27853", "setting": "[2]", "value": "− (>32 μg/mL)"}, {"measurement": "Ec: MIC Escherichia coli ATCC 25922", "setting": "[3]", "value": "++ (≤8 μg/mL)"}, {"measurement": "Sa: MIC Staphylococcus aureus ATCC 13709", "setting": "[4]", "value": "++ (≤8 μg/mL)"}]}
{"smiles": "N=C(N)NCC/C=C(\\NC(=O)[C@H](CCCCN)NC(=O)[C@H](Cc1cccc(F)c1)NC(=O)[C@@H]1CCCN1C(=O)[C@@H](CCCN)NC(=O)CNC(=O)[C@H](CCN)NC(=O)[C@@H](NC(=O)[C@@H](N)CCCCN)[C@@H](O)CN)C(=O)O", "note": "[21.7] (H-K[Dab(3S-OH)][Dab]G[dOrn]P[Phe(3-F)]K[ΔZArg]-OH)", "values": [{"measurement": "Ab: MIC Acinetobacter baumannii ATCC 19606", "setting": "[1]", "value": "− (>32 μg/mL)"}, {"measurement": "Pa: MIC Pseudomonas aeruginosa ATCC 27853", "setting": "[2]", "value": "− (>32 μg/mL)"}, {"measurement": "Ec: MIC Escherichia coli ATCC 25922", "setting": "[3]", "value": "++ (≤8 μg/mL)"}, {"measurement": "Sa: MIC Staphylococcus aureus ATCC 13709", "setting": "[4]", "value": "++ (≤8 μg/mL)"}]}
{"smiles": "Cc1cccc(C[C@H](NC(=O)[C@@H]2CCCN2C(=O)[C@@H](CCCN)NC(=O)CNC(=O)[C@H](CCN)NC(=O)[C@@H](NC(=O)[C@@H](N)CCCCN)[C@@H](O)CN)C(=O)N[C@@H](CCCCN)C(=O)N/C(=C\\CCNC(=N)N)C(=O)O)c1", "note": "[21.8] (H-K[Dab(3S-OH)][Dab]G[dOrn]P[Phe(3-Me)]K[ΔZArg]-OH)", "values": [{"measurement": "Ab: MIC Acinetobacter baumannii ATCC 19606", "setting": "[1]", "value": "− (>32 μg/mL)"}, {"measurement": "Pa: MIC Pseudomonas aeruginosa ATCC 27853", "setting": "[2]", "value": "− (>32 μg/mL)"}, {"measurement": "Ec: MIC Escherichia coli ATCC 25922", "setting": "[3]", "value": "++ (≤8 μg/mL)"}, {"measurement": "Sa: MIC Staphylococcus aureus ATCC 13709", "setting": "[4]", "value": "++ (≤8 μg/mL)"}]}
{"smiles": "N#Cc1ccc(C[C@H](NC(=O)[C@@H]2CCCN2C(=O)[C@@H](CCCN)NC(=O)CNC(=O)[C@H](CCN)NC(=O)[C@@H](NC(=O)[C@@H](N)CCCCN)[C@@H](O)CN)C(=O)N[C@@H](CCCCN)C(=O)N/C(=C\\CCNC(=N)N)C(=O)O)cc1", "note": "[21.9] (H-K[Dab(3S-OH)][Dab]G[dOrn]P[Phe(4-CN)]K[ΔZArg]-OH)", "values": [{"measurement": "Ab: MIC Acinetobacter baumannii ATCC 19606", "setting": "[1]", "value": "− (>32 μg/mL)"}, {"measurement": "Pa: MIC Pseudomonas aeruginosa ATCC 27853", "setting": "[2]", "value": "− (>32 μg/mL)"}, {"measurement": "Ec: MIC Escherichia coli ATCC 25922", "setting": "[3]", "value": "++ (≤8 μg/mL)"}, {"measurement": "Sa: MIC Staphylococcus aureus ATCC 13709", "setting": "[4]", "value": "++ (≤8 μg/mL)"}]}
{"smiles": "COc1ccc(C[C@H](NC(=O)[C@@H]2CCCN2C(=O)[C@@H](CCCN)NC(=O)CNC(=O)[C@H](CCN)NC(=O)[C@@H](NC(=O)[C@@H](N)CCCCN)[C@@H](O)CN)C(=O)N[C@@H](CCCCN)C(=O)N/C(=C\\CCNC(=N)N)C(=O)O)cc1", "note": "[21.10] (H-K[Dab(3S-OH)][Dab]G[dOrn]PY(Me)K[ΔZArg]-OH)", "values": [{"measurement": "Ab: MIC Acinetobacter baumannii ATCC 19606", "setting": "[1]", "value": "− (>32 μg/mL)"}, {"measurement": "Pa: MIC Pseudomonas aeruginosa ATCC 27853", "setting": "[2]", "value": "− (>32 μg/mL)"}, {"measurement": "Ec: MIC Escherichia coli ATCC 25922", "setting": "[3]", "value": "++ (≤8 μg/mL)"}, {"measurement": "Sa: MIC Staphylococcus aureus ATCC 13709", "setting": "[4]", "value": "++ (≤8 μg/mL)"}]}
